Calls of active or inactive are those of the source. The calls are words filed in the database; no cut-off is given here.
How the values were obtained:
[1] = tested on: Infectious bronchitis virus; assay: Antiviral activity against Infectious bronchitis virus; type: functional, organism-based
Influenza A virus [2] = assay: Antiviral activity against Influenza A virus H3N2 subtype; type: functional, organism-based
[3] = Cytotoxicity against MDCK cells; type: toxicity, cell-based, Canis lupus familiaris; settings: dog
Influenza A virus [4] = assay: Antiviral activity against influenza A virus H1N1 infected in MDCK cells; type: functional, organism-based
[5] = Toxicity in Kunming mouse infected with influenza A virus H1N1 A/Puerto Rico/8/1934 assessed as reduction in body weight at 1.67 to 15 mg/kg, po administered with compound twice daily for 7 days followed by viral infection on day 2 and measured for 14 days relative to oseltamivir; type: organism-based; settings: in vivo, 336 h, dose 1.67-15 mg/kg, time 14 day
Influenza A virus [6] = assay: Antiviral activity against influenza A virus H1N1 A/Puerto Rico/8/1934 infected in Kunming mouse assessed as survival rate at 5 to 15 mg/kg, po administered with compound twice daily for 7 days followed by viral infection on day 2 and measured for 14 days relative to control; type: functional; settings: dose 5-15 mg/kg, time 14 day
[7] = Gastrointestinal toxicity in Kunming mouse infected with influenza A virus H1N1 A/Puerto Rico/8/1934 assessed as soft stool at 1.67 to 15 mg/kg, po administered with compound twice daily for 7 days followed by viral infection on day 2 and measured for 14 days; type: organism-based; settings: in vivo, 336 h, dose 1.67-15 mg/kg, time 14 day
Influenza A virus [8] = assay: Antiviral activity against influenza A virus H1N1 A/Puerto Rico/8/1934 infected in Kunming mouse assessed as survival rate at 1.67 mg/kg, po administered with compound twice daily for 7 days followed by viral infection on day 2 and measured for 14 days relative to control; type: functional; settings: H1N1 A/Puerto Rico/8/1934, 336 h, time 14 day
[9] = Selectivity index, ratio of CC50 for MDCK cells to IC50 for influenza A virus infected in MDCK cells; type: toxicity, cell-based; settings: dog, read-out: Ratio CC50/IC50
[10] = Toxicity in Kunming mouse infected with influenza A virus H1N1 A/Puerto Rico/8/1934 assessed as reduction in body weight at 5 to 15 mg/kg, po administered with compound twice daily for 7 days followed by viral infection on day 2 and measured for 14 days relative to oseltamivir; type: organism-based; settings: in vivo, 336 h, dose 5-15 mg/kg, time 14 day
hERG (KCNH2) = hERG (KCNH2) (Homo sapiens, UniProt Q12809); assay: Inhibition of hERG at 10 uM relative to control; type: toxicity
Sequence of hERG (KCNH2) (Q12809 whole entry): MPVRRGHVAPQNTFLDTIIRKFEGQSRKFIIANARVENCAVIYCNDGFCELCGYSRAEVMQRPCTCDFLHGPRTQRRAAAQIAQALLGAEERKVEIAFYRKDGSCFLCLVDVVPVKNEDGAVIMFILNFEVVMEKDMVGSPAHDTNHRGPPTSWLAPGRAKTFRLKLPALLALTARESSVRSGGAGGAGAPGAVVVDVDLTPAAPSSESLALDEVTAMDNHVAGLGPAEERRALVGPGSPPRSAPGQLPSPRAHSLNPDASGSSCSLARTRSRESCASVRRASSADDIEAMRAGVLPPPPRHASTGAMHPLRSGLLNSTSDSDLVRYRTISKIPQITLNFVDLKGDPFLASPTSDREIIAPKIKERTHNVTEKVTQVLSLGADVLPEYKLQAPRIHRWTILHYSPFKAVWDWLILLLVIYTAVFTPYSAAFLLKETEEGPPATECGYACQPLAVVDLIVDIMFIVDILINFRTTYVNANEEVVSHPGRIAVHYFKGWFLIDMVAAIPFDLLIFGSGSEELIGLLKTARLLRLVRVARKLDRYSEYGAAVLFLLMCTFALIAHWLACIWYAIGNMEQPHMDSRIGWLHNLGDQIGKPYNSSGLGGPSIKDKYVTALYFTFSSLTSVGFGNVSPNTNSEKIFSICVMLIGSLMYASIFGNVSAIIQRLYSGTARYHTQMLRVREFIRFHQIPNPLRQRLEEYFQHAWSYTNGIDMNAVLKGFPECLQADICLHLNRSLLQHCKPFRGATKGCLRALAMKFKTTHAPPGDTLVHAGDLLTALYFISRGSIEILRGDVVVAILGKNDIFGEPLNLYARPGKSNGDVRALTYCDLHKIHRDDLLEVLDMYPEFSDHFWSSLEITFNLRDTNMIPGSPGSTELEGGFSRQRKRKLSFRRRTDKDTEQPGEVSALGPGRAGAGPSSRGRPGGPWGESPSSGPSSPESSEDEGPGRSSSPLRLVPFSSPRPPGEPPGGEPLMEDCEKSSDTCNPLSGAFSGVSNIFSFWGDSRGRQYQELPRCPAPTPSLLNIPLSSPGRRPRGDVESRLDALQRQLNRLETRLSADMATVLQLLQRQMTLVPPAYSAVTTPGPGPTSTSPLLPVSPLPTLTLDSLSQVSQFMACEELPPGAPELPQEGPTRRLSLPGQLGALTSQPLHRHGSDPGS

[11] = Elimination half life in Balb/c mouse at 25 mg/kg, po administered as single dose; type: ADME, organism-based; settings: in vivo, read-out: beta t1/2 (converted)
[12] = Tmax in Balb/c mouse at 25 mg/kg, po administered as single dose; type: ADME, organism-based; settings: in vivo
[13] = AUC (0 to infinity) in Balb/c mouse at 25 mg/kg, po administered as single dose; type: ADME, organism-based; design: dose 25 mg/kg, route po; settings: in vivo
[14] = Cmax in Balb/c mouse at 25 mg/kg, po administered as single dose; type: ADME, organism-based; design: dose 25 mg/kg, route po; settings: in vivo
Influenza A virus [15] = assay: Antiviral activity against influenza A virus H1N1 A/Puerto Rico/8/1934 infected in Kunming mouse assessed as survival rate at 15 mg/kg, po administered with compound twice daily for 7 days followed by viral infection on day 2 and measured for 14 days relative to control; type: functional; settings: H1N1 A/Puerto Rico/8/1934, 336 h, time 14 day

Row | Structure (SMILES) | CC50 [3] [nM] | IC50 (Influenza A virus [4]) [nM] | selectivity ratio [9] | also measured
1 | CC(=O)Nc1ccc2oc(-c3ccnc(C(=O)N4CCN(C(c5ccc(F)cc5)c5nnn(C)n5)CC4)c3)nc2c1 (stereo not drawn) |  |  |  | Activity [1]: inactive; Activity (Influenza A virus [2]): inactive
2 | Cn1nnc(C(c2ccc(F)cc2)N2CCN(C(=O)c3cc(-c4nc5cc(NC(=O)C6CCCC6)ccc5o4)ccn3)CC2)n1 (stereo not drawn) | 5140 | 630 |  | 
3 | CCn1nnc(C(c2ccc(F)cc2)N2CCN(C(=O)c3cc(-c4nc5cc(NC(C)=O)ccc5o4)ccn3)CC2)n1 (stereo not drawn) | > 50000 | 630 |  | 
4 | CC(=O)Nc1ccc2oc(-c3ccnc(C(=O)N4CCN([C@H](c5ccc(F)cc5)c5nnn(C)n5)CC4)c3)nc2c1 | > 100000 |  |  | Activity [5]: Non-Toxic; Survival (Influenza A virus [6]): 100%; Activity [7]: Toxic; survival at 1.67 mg/kg (Influenza A virus [8]): 70%
5 | CCCCn1nnc([C@H](c2ccc(F)cc2)N2CCN(C(=O)c3cc(-c4nc5cc(NC(C)=O)ccc5o4)ccn3)CC2)n1 | > 100000 | 1200 | > 83 | 
6 | CCCCn1nnc([C@@H](c2ccc(F)cc2)N2CCN(C(=O)c3cc(-c4nc5cc(NC(C)=O)ccc5o4)ccn3)CC2)n1 | > 100000 | 140 | > 714 | 
7 | CC(=O)Nc1ccc2oc(-c3ccnc(C(=O)N4CCN([C@H](c5ccccc5)c5nnn(C)n5)CC4)c3)nc2c1 |  |  |  | Activity [1]: inactive; Activity [10]: Non-Toxic; Survival (Influenza A virus [6]): 100%; Activity (Influenza A virus [2]): inactive; survival at 1.67 mg/kg (Influenza A virus [8]): 80%
8 | Cn1nnc(C(c2ccc(F)cc2)N2CCN(C(=O)c3cc(-c4nc5cc(NC(=O)c6ccco6)ccc5o4)ccn3)CC2)n1 (stereo not drawn) | 12800 | 220 |  | 
9 | C=Cn1nnc(C(c2ccc(F)cc2)N2CCN(C(=O)c3cc(-c4nc5cc(NC(C)=O)ccc5o4)ccn3)CC2)n1 (stereo not drawn) | > 50000 | 270 |  | 
10 | COCCn1nnc(C(c2ccc(F)cc2)N2CCN(C(=O)c3cc(-c4nc5cc(NC(C)=O)ccc5o4)ccn3)CC2)n1 (stereo not drawn) | > 50000 | 2470 |  | 
11 | CC(=O)Nc1ccc2oc(-c3ccnc(C(=O)N4CCN(C(c5ccc(F)cc5)c5nnn(C6CCCC6)n5)CC4)c3)nc2c1 (stereo not drawn) | > 50000 | 260 |  | 
12 | CC(=O)Nc1ccc2oc(-c3ccnc(C(=O)N4CCN(C(c5ccc(F)cc5)c5nnn(CCC(C)C)n5)CC4)c3)nc2c1 (stereo not drawn) | > 50000 | 350 |  | 
13 | CCCC(=O)Nc1ccc2oc(-c3ccnc(C(=O)N4CCN(C(c5ccc(F)cc5)c5nnn(C)n5)CC4)c3)nc2c1 (stereo not drawn) | > 50000 | 630 |  | 
14 | CCC(CC)C(=O)Nc1ccc2oc(-c3ccnc(C(=O)N4CCN(C(c5ccc(F)cc5)c5nnn(C)n5)CC4)c3)nc2c1 (stereo not drawn) | 28600 | 360 |  | 
15 | CCC(CC)n1nnc([C@H](c2ccc(F)cc2)N2CCN(C(=O)c3cc(-c4nc5cc(NC(C)=O)ccc5o4)ccn3)CC2)n1 | > 100000 | 400 | > 250 | 
16 | CC(=O)Nc1ccc2oc(-c3ccnc(C(=O)N4CCN([C@@H](c5ccc(F)cc5)c5nnn(CCC(C)C)n5)CC4)c3)nc2c1 | > 100000 | 2510 | > 39 | 
17 | CCC(CC)n1nnc([C@@H](c2ccc(F)cc2)N2CCN(C(=O)c3cc(-c4nc5cc(NC(C)=O)ccc5o4)ccn3)CC2)n1 | > 100000 | 90 | > 1110 | 
18 | Cn1nnc(C(c2ccc(F)cc2)N2CCN(C(=O)c3cc(-c4nc5cc(NC(=O)c6ccccc6)ccc5o4)ccn3)CC2)n1 (stereo not drawn) | 10700 | 630 |  | 
19 | CC(=O)Nc1ccc2oc(-c3ccnc(C(=O)N4CCN(C(c5ccc(F)cc5)c5nnn(C6CCCCC6)n5)CC4)c3)nc2c1 (stereo not drawn) | > 50000 | 270 |  | 
20 | C=Cn1nnc([C@@H](c2ccc(F)cc2)N2CCN(C(=O)c3cc(-c4nc5cc(NC(C)=O)ccc5o4)ccn3)CC2)n1 | > 100000 | 30 | > 3330 | inhibition at 10 µM (hERG (KCNH2)): 36.4%; half-life [11]: 94.2 min; Tmax [12]: 15 min; AUC(0-inf) [13]: 2100 ng·h/mL; Cmax [14]: 2130 ng/mL
21 | CCC(=O)Nc1ccc2oc(-c3ccnc(C(=O)N4CCN(C(c5ccc(F)cc5)c5nnn(C)n5)CC4)c3)nc2c1 (stereo not drawn) | > 50000 | 450 |  | 
22 | CC(=O)Nc1ccc2oc(-c3ccnc(C(=O)N4CCN([C@@H](c5ccc(F)cc5)c5nnn(C6CCCC6)n5)CC4)c3)nc2c1 | 96200 | 510 | 188 | 

Row | Structure (SMILES) | CC50 [3] [nM] | IC50 (Influenza A virus [4]) [nM] | selectivity ratio [9] | also measured
23 | CC(=O)Nc1ccc2oc(-c3ccnc(C(=O)N4CCN([C@H](c5ccccc5)c5nnn(C(C)C)n5)CC4)c3)nc2c1 | > 100000 | 100 | > 1000 | 
24 | Cn1nnc(C(c2ccc(F)cc2)N2CCN(C(=O)c3cc(-c4nc5cc(NC(=O)C6CCCCC6)ccc5o4)ccn3)CC2)n1 (stereo not drawn) | 1430 | 820 |  | 
25 | CC(=O)Nc1ccc2oc(-c3ccnc(C(=O)N4CCN(C(c5ccc(F)cc5)c5nnn(CCC6CCCCC6)n5)CC4)c3)nc2c1 (stereo not drawn) | > 50000 | 820 |  | 
26 | CC(=O)Nc1ccc2oc(-c3ccnc(C(=O)N4CCN(C(c5ccc(F)cc5)c5nnn(C6CCOCC6)n5)CC4)c3)nc2c1 (stereo not drawn) | > 50000 | 1080 |  | 
27 | CC(=O)Nc1ccc2oc(-c3ccnc(C(=O)N4CCN([C@H](c5ccc(F)cc5)c5nnn(C(C)C)n5)CC4)c3)nc2c1 | > 100000 | 30 | > 3330 | inhibition at 10 µM (hERG (KCNH2)): 27.1%; half-life [11]: 75 min; survival at 15 mg/kg (Influenza A virus [15]): 80%; Tmax [12]: 15 min; AUC(0-inf) [13]: 2980 ng·h/mL; Cmax [14]: 3770 ng/mL
28 | Cn1nnc(C(c2ccc(F)cc2)N2CCN(C(=O)c3cc(-c4nc5cc(NC(=O)C(C)(C)C)ccc5o4)ccn3)CC2)n1 (stereo not drawn) | 12800 | 350 |  | 
29 | CC(=O)Nc1ccc2sc(-c3ccnc(C(=O)N4CCN(C(c5ccccc5)c5nnnn5C(C)C)CC4)c3)nc2c1 (stereo not drawn) | 38500 | > 15000 |  | 
30 | CC(=O)Nc1ccc2oc(-c3ccnc(C(=O)N4CCN(C(c5ccccc5)c5nnnn5C(C)C)CC4)c3)nc2c1 (stereo not drawn) | > 50000 | > 15000 |  | 
31 | CC(=O)Nc1ccc2oc(-c3ccnc(C(=O)N4CCN([C@@H](c5ccc(F)cc5)c5nnn(C(C)C)n5)CC4)c3)nc2c1 | > 100000 | 2560 | > 39 | 
32 | Cn1nnc(C(c2ccc(F)cc2)N2CCN(C(=O)c3cc(-c4nc5cc(NC(=O)C6CCCO6)ccc5o4)ccn3)CC2)n1 (stereo not drawn) | > 50000 | 820 |  | 
33 | CCCCn1nnc(C(c2ccc(F)cc2)N2CCN(C(=O)c3cc(-c4nc5cc(NC(C)=O)ccc5o4)ccn3)CC2)n1 (stereo not drawn) | > 50000 | 380 |  | 
34 | CCCn1nnc(C(c2ccc(F)cc2)N2CCN(C(=O)c3cc(-c4nc5cc(NC(C)=O)ccc5o4)ccn3)CC2)n1 (stereo not drawn) | > 50000 | 630 |  | 
35 | CCC(CC)n1nnc(C(c2ccc(F)cc2)N2CCN(C(=O)c3cc(-c4nc5cc(NC(C)=O)ccc5o4)ccn3)CC2)n1 (stereo not drawn) | > 50000 | 360 |  | 
36 | CC(=O)Nc1ccc2sc(-c3ccnc(C(=O)N4CCN(C(c5ccccc5)c5nnn(C(C)C)n5)CC4)c3)nc2c1 (stereo not drawn) | > 50000 | 1430 |  | 
37 | CC(=O)Nc1ccc2oc(-c3ccnc(C(=O)N4CCN([C@@H](c5ccccc5)c5nnn(C(C)C)n5)CC4)c3)nc2c1 | > 100000 | 830 | > 120 | 
38 | CC(=O)Nc1ccc2oc(-c3ccnc(C(=O)N4CCN(C(c5ccccc5)c5nnn(C(C)C)n5)CC4)c3)nc2c1 (stereo not drawn) | > 50000 | 150 |  | 
39 | C=Cn1nnc([C@H](c2ccc(F)cc2)N2CCN(C(=O)c3cc(-c4nc5cc(NC(C)=O)ccc5o4)ccn3)CC2)n1 | > 100000 | 2930 | > 34 | 
40 | CC(=O)Nc1ccc2oc(-c3ccnc(C(=O)N4CCN([C@H](c5ccc(F)cc5)c5nnn(C6CCCC6)n5)CC4)c3)nc2c1 | 87200 | 110 | 792 | half-life [11]: 26.5 min; Tmax [12]: 15 min; AUC(0-inf) [13]: 692 ng·h/mL; Cmax [14]: 992 ng/mL
41 | CC(=O)Nc1ccc2oc(-c3ccnc(C(=O)N4CCN(C(c5ccc(F)cc5)c5nnn(CC6CCCCC6)n5)CC4)c3)nc2c1 (stereo not drawn) | 38500 | 360 |  | 
42 | CC(=O)Nc1ccc2oc(-c3ccnc(C(=O)N4CCN([C@H](c5ccc(F)cc5)c5nnn(CCC(C)C)n5)CC4)c3)nc2c1 | > 100000 | 260 | > 384 | 
43 | CC(=O)Nc1ccc2oc(-c3ccnc(C(=O)N4CCN(C(c5ccc(F)cc5)c5nnn(C6CC6)n5)CC4)c3)nc2c1 (stereo not drawn) | > 50000 | 1190 |  | 
44 | CC(=O)Nc1ccc2oc(-c3ccnc(C(=O)N4CCN(C(c5ccc(F)cc5)c5nnn(C(C)C)n5)CC4)c3)nc2c1 (stereo not drawn) | > 50000 | 220 |  | 
